The text below walks through data of US20040266814A1, “Imidazopyridine compounds having 5-HT4 receptor agonistic activity and 5-HT3 receptor antagonistic activity” (Pfizer Inc, priority 2003, published 2004).

One data set deals with T1, rat 5-HT3 receptors (Rattus norvegicus, UniProt P35563).
T1 construct: Cerebral cortical tissues were removed from male Sprague-Dawley (SD) rats; from tissue; host or cells: cerebral cortex of male Sprague-Dawley rats (membranes)
T1 sequence (P35563 24-483): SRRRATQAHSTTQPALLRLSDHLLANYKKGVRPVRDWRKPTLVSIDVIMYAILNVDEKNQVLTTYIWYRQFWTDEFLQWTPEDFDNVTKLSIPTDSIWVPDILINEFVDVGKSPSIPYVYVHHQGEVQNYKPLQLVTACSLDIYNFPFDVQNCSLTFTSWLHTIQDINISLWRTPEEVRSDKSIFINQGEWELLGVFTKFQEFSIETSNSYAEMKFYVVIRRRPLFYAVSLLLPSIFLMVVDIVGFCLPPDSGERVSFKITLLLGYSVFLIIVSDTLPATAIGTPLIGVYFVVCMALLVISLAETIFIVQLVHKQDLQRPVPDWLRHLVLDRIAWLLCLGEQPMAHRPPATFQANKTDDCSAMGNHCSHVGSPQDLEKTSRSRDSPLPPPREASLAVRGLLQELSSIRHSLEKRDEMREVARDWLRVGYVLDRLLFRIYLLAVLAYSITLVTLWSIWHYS
Put plainly: Rat 5-HT3 receptor binding ([3H]-BRL 43694, rat cortical membranes). Particulars: read-out: r5HT3 Binding Ki. On the procedure:
Cerebral cortical tissues were removed from male Sprague-Dawley (SD) rats (Japan SLC), weighed and placed in 10 volumes of 50 mM ice-cold Tris-HCl (pH 7.5). This was homogenized in a Polytron homogenizer (30 sec at full speed) and subsequently centrifuged at 48,000 g and 4° C. for 15 min. The resulting pellet was resuspended in 50 mM ice-cold Tris-HCl, homegenized and centrifuged again in the same way. The final pellet was resuspended in an appropriate volume of 50 mM Tris-HCl, dispensed into aliquots and stored at −80° C. until use.
The protein concentrations of homogenates were determined by Bradford method or BCA protein method (Pierce) with BSA as a standard.
Affinity of compounds for pig or bovine 5-HT4 and rat 5-HT3 receptors were assessed with using radiolabeled specific ligands, GR 113808 ({1-[2-(methylsulfonyl)ethyl]-4-piperidinyl} [methyl-^3H]-1H-indole-3-carboxylate) and BRL 43694 (1-Methyl-N-(9-[methyl-^3H]-9-azabicyclo [3.3.1]non-3-yl)-1H-indazole-3-caboxamide). Compounds were incubated with 25-100 pM of [^3H]-GR 113808 (Amersham) and 0.6-1 mg protein of pig or bovine striatal membranes suspended in a final volume of 0.8-1 ml of 50 mM Tris-HCl (pH 7.5). Nonspecific binding was determined with 10-50 μM 5-HT. The binding of 0.3 nM [^3H]-BRL 43694 (NEN) was measured using 400 μg protein of rat cortical membranes suspended in a final volume of 500 μl of 50 mM Tris-HCl (pH 7.5)., Nonspecific binding was determined with 10 μM 5-HT.
The plates were incubated at room temperature on a plate shaker for 30 min. The assays were stopped by rapid filtration using a Brandell cell harvester through Wallac-B filters pre-soaked in 0.2% poly(ethylenimine) at 4° C. for 60-90 min. The filters were washed three times with 1 ml of ice-cold 50 mM HEPES, and were dried in a microwave or at room temperature. They were bagged and heated with meltilex scintillant (Wallac) or soaked in BetaplateScint (Wallac). Receptor-bound radioactivity was quantified using Big-spot counter, Betaplate counter (Wallac) or LS counter (Packard).

The target in data set [1] is T2, Human 5-HT4(d) transfected HEK293 cells (Homo sapiens, UniProt Q13639).
T2 construct: expressed in transfected cells; host or cells: HEK293
T2 sequence (Q13639 1-360 isoform Q13639-3): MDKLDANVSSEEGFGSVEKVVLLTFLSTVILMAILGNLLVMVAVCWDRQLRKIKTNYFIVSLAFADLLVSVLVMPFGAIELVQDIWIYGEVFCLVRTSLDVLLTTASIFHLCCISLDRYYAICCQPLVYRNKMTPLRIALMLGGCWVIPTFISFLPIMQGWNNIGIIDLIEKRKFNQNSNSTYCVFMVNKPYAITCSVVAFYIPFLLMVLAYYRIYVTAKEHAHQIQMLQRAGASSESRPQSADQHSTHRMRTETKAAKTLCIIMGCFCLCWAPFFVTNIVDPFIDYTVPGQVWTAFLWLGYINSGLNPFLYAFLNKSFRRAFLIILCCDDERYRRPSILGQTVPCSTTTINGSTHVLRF
The data set is described as follows: Agonist-induced cAMP elevation in human 5-HT4(d) transfected HEK293 cells. Type of data set: cell-based. Particulars: for Emax: HEK293, normalized to cAMP produced by 1000 nM serotonin, read-out: cAMP 5HT4 function Emax; for EC50: human 5-HT4(d) transfected HEK293 cells, read-out: cAMP 5HT4 function; for cAMP 5HT4 function, verdict in words: table remark in brackets. On the procedure: Agonist-Induced cAMP Elevation in Human 5-HT4(d) Transfected HEK293 Cells
Human 5-HT4(d) transfected HEK293 cells were established in-house. The cells were grown at 37° C. and 5% CO2 in DMEM supplemented with 10% FCS, 20 mM HEPES (pH 7.4), 200 μg/ml hygromycin B (Gibco), 100 units/ml penicillin and 100 μg/ml streptomycin.
The cells were grown to 60-80% confluence. On the previous day before treatment with compounds dialyzed FCS (Gibco) was substituted for normal and the cells were incubated overnight.
Compounds were prepared in 96-well plates (12.5 μl/well). The cells were harvested with PBS/1 mM EDTA, centrifuged and washed with PBS. At the beginning of the assay, cell pellet was resuspended in DMEM supplemented with 20 mM HEPES, 10 μM pargyline (Sigma) and 1 mM 3-isobutyl-1-methylxanthine (Sigma) at the concentration of 1.6×10^5 cells/ml and left for 15 minutes at room temperature. The reaction was initiated by addition of the cells into plates (12.5 μl/well). After incubation for 15 minutes at room temperature, 1% Triton X-100 was added to stop the reaction (25 μl/well) and the plates were left for 30 minutes at room temperature. Homogenous time-resolved fluorescence-based cAMP (Schering) detection was made according to the manufacturer's instruction. ARVOsx multilabel counter (Wallac) was used to measure HTRF (excitation 320 nm, emission 665 nm/620 nm, delay time 50 μs, window time 400 μs).
Data was analyzed based on the ratio of fluorescence intensity of each well at 620 nm and 665 nm followed by cAMP quantification using cAMP standard curve. Enhancement of cAMP production elicited by each compound was normalized to the amount of cAMP produced by 1000 nM serotonin (Sigma).

The target of another data set is T3, Human 5-HT4(d) (Homo sapiens, UniProt Q13639).
T3 construct: expressed in transfected cells; host or cells: HEK293
T3 sequence (Q13639 1-360 isoform Q13639-3): as above
Put plainly: Human 5-HT4 binding ([3H]-GR113808, SPA). The following applies: human 5-HT4(d) HEK293 membranes, read-out: h5HT4 Ki. Here is the method: Human S-HT4(d) transfected HEK293 cells were prepared and grown in-house. The collected cells were suspended in 50 mM HEPES (pH 7.4 at 4° C.) supplemented with protease inhibitor cocktail (Boehringer, 1:1000 dilution) and homogenized using a hand held Polytron PT 1200 disruptor set at full power for 30 sec on ice. The homogenates were centrifuged at 40,000×g at 4° C. for 30 min. The pellets were then resuspended in 50 mM HEPES (pH 7.4 at 4° C.) and centrifuged once more in the same manner. The final pellets were resuspended in an appropriate volume of 50 mM HEPES (pH 7.4 at 25° C.), homogenized, aliquoted and stored at −80° C. until use. An aliquot of membrane fractions was used for protein concentration determination using BCA protein assay kit (PIERCE) and ARVOsx plate reader (Wallac).
For the binding experiments, 25 μl of test compounds were incubated with 25 μl of [^3H]-GR113808 (Amersham, final 0.2 nM) and 150 μl of membrane homogenate and WGA-SPA beads (Amersham) suspension solutions (10 μg protein and 1 mg SPA beads/well) for 60 minutes at room temperature. Nonspecific binding was determined by 1 μM GR113808 (Tocris) at the final concentration. Incubation was terminated by centrifugation at 1000 rpm. Receptor-bound radioactivity was quantified by counting with MicroBeta plate counter (Wallac).

Another data set deals with T4, 5-HT3 (Cavia porcellus, UniProt O70212).
T4 construct: 5-HT3 antagonist assay in guinea-pig longitudinal muscle-myenteric plexus (LMMP); from tissue; host or cells: guinea-pig longitudinal muscle-myenteric plexus (LMMP)
T4 sequence (O70212 20-490): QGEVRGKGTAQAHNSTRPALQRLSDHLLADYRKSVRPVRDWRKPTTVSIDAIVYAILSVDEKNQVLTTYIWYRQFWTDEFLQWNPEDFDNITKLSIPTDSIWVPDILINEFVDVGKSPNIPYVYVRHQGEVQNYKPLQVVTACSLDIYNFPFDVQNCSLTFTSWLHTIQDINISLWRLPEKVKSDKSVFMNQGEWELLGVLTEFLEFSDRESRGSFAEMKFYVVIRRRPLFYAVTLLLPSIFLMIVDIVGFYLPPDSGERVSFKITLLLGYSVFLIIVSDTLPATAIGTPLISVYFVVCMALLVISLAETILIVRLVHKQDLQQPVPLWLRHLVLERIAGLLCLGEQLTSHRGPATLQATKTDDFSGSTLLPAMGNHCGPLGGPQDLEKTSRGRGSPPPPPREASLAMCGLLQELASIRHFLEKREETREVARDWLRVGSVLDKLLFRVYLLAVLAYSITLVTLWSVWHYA
Put plainly: 5-HT3 antagonist assay in guinea-pig longitudinal muscle-myenteric plexus (LMMP). Here is the method: 5-HT3 Functional Assay Method
5-HT3 antagonist assay in guinea-pig longitudinal muscle-myenteric plexus (LMMP): The LMMP tissues were prepared according to the method of A. Butler et al. (Br. J. Pharmacology, 101: 591-598, 1990) and their 5-HT4 receptors were desensitized by performing in 10 μM of 5-methoxytryptamine-containing Krebs solution. Non-cumulative concentration-effect curves (CECs) to 5-HT were constructed across the range […] in half-log unit increments. After 60-minute-equilibration with antagonists, 2nd CECs to 5-HT were constructed until 1 mM.

Structures can show the parent of a compound that is named as a salt.

As for `CN(C)C1(CCNC(=O)c2cc(Cl)cn3ccnc23)CCCCC1`, the Ki (commonly a dissociation constant, usually derived from enzyme kinetics or from competition with a known ligand) at rat 5-HT3 receptors was 785 nM.
On to `Cc1cn2c(N)c(Cl)cc(C(=O)NCC3CCNCC3)c2n1` (as salt: hydrochloride) [Example 1, 5-AMINO-6-CHLORO-2-METHYL-N-(PIPERIDIN-4-YLMETHYL)-IMIDAZO[1,2-a]PYRIDINE-8-CARBOXAMIDE], for which the melting point (usually the temperature, or range, at which the solid turns liquid) stood at 237 °C.
Consider `O=C(NC1CN2CCC1CC2)c1cc(Cl)cn2ccnc12` (centres unmarked) [C], for which the inhibitory constant (Ki) at rat 5-HT3 receptors came to 6 nM. Further, in data set [1], the “5HT4 receptor agonistic activity” value is “inactive”; the Emax (in general, the size of the effect at its maximum, as opposed to the concentration needed) was 11%; the EC50 turned out to be 2660 nM; the “cAMP 5HT4 function, verdict in words” value was “inactive”.
For the compound `Cc1cn2c(N)c(Cl)cc(C(=O)NCC3CCNCC3)c2n1` [Example 1, 5-AMINO-6-CHLORO-2-METHYL-N-(PIPERIDIN-4-YLMETHYL)-IMIDAZO[1,2-a]PYRIDINE-8-CARBOXAMIDE], the inhibition constant Ki at Human 5-HT4(d) worked out at 58 nM; at rat 5-HT3 receptors, 26 nM. In data set [1], the maximum response (Emax) was found to be 88%. In addition, the EC50 in data set [1] came to 13.6 nM.
The compound `CCc1cn2c(N)c(Cl)cc(C(=O)NCC3CCNCC3)c2n1` [Example 2, 5-AMINO-6-CHLORO-2-ETHYL-N-(PIPERIDIN-4-YLMETHYL)IMIDAZO[1,2-a]PYRIDINE-8-CARBOXAMIDE] gave a melting point of 153 °C. For the same compound, the “LMMP 5HT3 function pA” value at 5-HT3 (antagonism of 5-HT) is 6.6. At 5-HT3 (read-out: pA2 (5HT3 antagonistic functional activity) (converted)), the Kb is 251 nM. In addition, the Ki at Human 5-HT4(d) was 109 nM. Further, the Ki on rat 5-HT3 receptors was determined as 48 nM. Moreover, in data set [1], the maximal effect (Emax) was determined as 58% and the EC50 was 40 nM.
As to `CCCCN1CCC(CNC(=O)c2cc(Cl)cn3ccnc23)CC1` [compound B], the inhibition constant Ki at Human 5-HT4(d) was found to be 1.1 nM. At rat 5-HT3 receptors, the inhibition constant (Ki) amounted to 4300 nM. In addition, in data set [1], the “5HT4 receptor agonistic activity” value was “inactive” and the “cAMP 5HT4 function, verdict in words” value was “inactive”. In data set [1] (@1000 [nM], normalized to 1000 nM serotonin), the “cAMP 5HT4 function, % @1000” value is on record as 0%.
